From the METLIN SMRT retention time set (Domingo-Almenara et al. 2019)

Assay: gradient 5% acetonitrile 3 min, to 50% in 2 min, to 85% in 15 min, held 3 min, 100 µL/min
Details: column: Zorbax Extend-C18 2.1 x 50 mm; eluents: water / acetonitrile, 0.1% formic acid
Method in brief: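 Pure standards were run in mixtures of ~100 molecules by HPLC coupled to a quadrupole time-of-flight mass spectrometer. The column was a Zorbax Extend-C18 (2.1 × 50 mm, 1.8 μm) at 100 μL/min, with water and acetonitrile each containing 0.1% formic acid, in positive and negative ionization mode. Dead and dwell volumes were 40 μL and 900 μL. Retention time was taken from computationally picked adduct peaks, each manually inspected, with data collected over 3 months.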

Cc1cccc(CNC(=O)c2ccc(CN3CCN(C(C)C)C(=O)C3=O)cc2)c1
RP-LC retention time: 714 s

COc1ccc2[nH]cc(CCNC(=O)c3cc(Cl)ccc3Cl)c2c1
RP-LC retention time: 878 s

CCn1c(=O)c(SCC(=O)N2CCN(c3ccccn3)CC2)nc2ccccc21
RP-LC retention time: 612 s

O=C(NC1CC1)C1CCN(c2nc3ccc(-c4cncnc4)nc3s2)CC1
RP-LC retention time: 672 s

COc1ccccc1C(=O)N1CCCC1c1cc(C)on1 (stereo not given)
RP-LC retention time: 723 s

COc1cccc(NC(=O)Cn2c(C)nc3c(sc4nc(-c5ccccc5)ccc43)c2=O)c1
RP-LC retention time: 1090 s

CC(=O)Nc1ccc(OCC(=O)O)nc1
RP-LC retention time: 574 s

COCC(O)Cn1ccnc1[N+](=O)[O-] (stereo not given)
RP-LC retention time: 609 s

Cn1c(C(=O)N2CCCc3ccccc32)cc2c(=O)oc3ccccc3c21
RP-LC retention time: 988 s

O=C(c1ccsc1)N1CCN(S(=O)(=O)c2cc(-c3noc(C4CCC4)n3)cs2)CC1
RP-LC retention time: 985 s

O=C(Nc1cccc(Br)c1)N1CCCC1c1nc(-c2ccc(F)cc2F)no1 (stereo not given)
RP-LC retention time: 1060 s

Cc1nn(C)c(C)c1CNC(=O)CN1C(=O)C2CCCCN2c2ccc(S(=O)(=O)N(C)C)cc21 (stereo not given)
RP-LC retention time: 693 s

Cc1ccc(C(=O)Nc2ccc3c(c2)Sc2ncccc2C(=O)N3C(C)C)cc1F
RP-LC retention time: 986 s

O=C(NCCn1c(=O)n(Cc2ccccc2)c2cccnc21)C1CCCC1
RP-LC retention time: 760 s

CC(NC(=O)c1ccco1)c1nc2ccccc2n1CC(=O)N1CCOCC1 (stereo not given)
RP-LC retention time: 586 s

Cc1ccc(N2CCC(NC(=O)Cc3ccccc3C)C2=O)cc1 (stereo not given)
RP-LC retention time: 869 s

CCOc1cccc(Cn2c(=O)c3sccc3n(Cc3nc(-c4ccc(C)cc4)no3)c2=O)c1
RP-LC retention time: 1120 s

Cc1nc(-c2csc(S(=O)(=O)N3CCC(C(=O)N4CCc5ccccc54)CC3)c2)no1
RP-LC retention time: 595 s

Cc1cc(OC(C)C(=O)Nc2ccnn2Cc2ccco2)ccc1Cl (stereo not given)
RP-LC retention time: 921 s

CC(C)c1cccc(C(C)C)c1N1C(=O)c2ccc(O)cc2C1=O
RP-LC retention time: 1130 s

CCn1cc(-c2nc(CC(=O)Nc3cccc(Cl)c3)cs2)c2cccnc21
RP-LC retention time: 942 s

COc1ccc(Cl)cc1NC(=O)CN1CCN(c2ccccc2F)CC1
RP-LC retention time: 709 s

CCOc1ccc(-c2noc(Cc3nnc(-c4ccc(C)c(F)c4)o3)n2)cc1
RP-LC retention time: 1140 s

Fc1cccc(-c2noc(-c3ccc(N4CCN(C5CCCCC5)CC4)nc3)n2)c1
RP-LC retention time: 814 s

CCN1CCCC1CNC(=O)c1nc(-c2oc3ccc(OC)cc3c2C)no1 (stereo not given)
RP-LC retention time: 682 s

O=C(COc1ccccc1)N1CCCC(c2n[nH]c(C3CC3)n2)C1 (stereo not given)
RP-LC retention time: 637 s

COc1cc([C@@H]2c3cc4c(cc3[C@H](O)[C@@H](CO)[C@@H]2C(=O)NCCCc2ccccc2)OCO4)cc(OC)c1OC
RP-LC retention time: 761 s

COc1cc(=O)c(C(=O)NC(C)C)nn1-c1ccc(F)cc1
RP-LC retention time: 686 s

COc1ccccc1C(=O)NC1CCN(c2ccccc2)C1=O (stereo not given)
RP-LC retention time: 789 s

Cn1ccc2c(cc(C(=O)NCc3ccc(N4CCOCC4)cc3)n2C)c1=O
RP-LC retention time: 614 s

CCN1c2ccccc2C(=O)NC12CCN(C(=O)Nc1cccc(OC)c1)CC2
RP-LC retention time: 703 s

COc1ccc(C(=O)N2CCn3c(C)nnc3C2)cc1F
RP-LC retention time: 593 s

CCSc1ccccc1C(=O)Nc1cc(C(C)(C)C)nn1CCO
RP-LC retention time: 781 s

Cn1cc(C(=O)NCCN2CCCCC2)c(S(=O)(=O)N2CCN(c3ccc(Cl)cc3)CC2)n1
RP-LC retention time: 728 s

CCOC(=O)c1c(C)[nH]c(C(=O)N2CCC(CC(=O)NC(C)C)CC2)c1C
RP-LC retention time: 683 s

CC(=O)Nc1ccc(C2(C(=O)N3CCCCC3)CCC2)cc1
RP-LC retention time: 711 s

Cn1c(Cn2c(=O)sc3ccccc32)nnc1SCC(=O)NCC1CCCO1 (stereo not given)
RP-LC retention time: 608 s

Cc1ccc(C(=O)CC2(O)C(=O)Nc3ccccc32)cc1 (stereo not given)
RP-LC retention time: 704 s

O=C(NCc1ccc(F)c(Cl)c1)C1CCN(c2nnc3ccccn23)CC1
RP-LC retention time: 686 s

O=C1COc2ccc(-c3csc(NC(=O)C4CCCO4)n3)cc2N1 (stereo not given)
RP-LC retention time: 715 s

CN1CCN(CC/C=C2/c3ccccc3Sc3ccc(S(=O)(=O)N(C)C)cc32)CC1
RP-LC retention time: 752 s

COCCC1(N(C)C)CCN(S(=O)(=O)c2ccc(C#N)cc2)CC1
RP-LC retention time: 613 s

COc1cc(C(=O)N2CCC(CC(=O)NC3CC3)CC2)cc(OC)c1OC
RP-LC retention time: 647 s

Cc1ccc(C2=NC3(CCN(C(=O)c4c[nH]c5ccccc45)CC3)ON2)cc1
RP-LC retention time: 769 s

O=C(NCc1ccccc1)C1CCN(C(=O)c2cc3ccsc3n2Cc2ccc(Cl)cc2)CC1
RP-LC retention time: 1060 s

Cc1cc(F)ccc1NC(=O)CN1C(=O)CCc2cc(S(=O)(=O)N3CCCCC3C)ccc21 (stereo not given)
RP-LC retention time: 920 s

CCN1C(=O)c2cccnc2Sc2cc(NC(=O)C3CCCC3)ccc21
RP-LC retention time: 816 s

Cc1ccc(-c2csc(NC(=O)c3ccccc3Br)n2)cc1
RP-LC retention time: 1080 s

O=S(=O)(c1cccc2nsnc12)N1CC[C@@H]2COCCN(Cc3cccnc3)[C@@H]2C1
RP-LC retention time: 615 s

O=C(Cc1ccc(F)cc1)N1CCN(C(=O)c2nnn3c2COC(c2ccccc2)C3)CC1 (stereo not given)
RP-LC retention time: 864 s

CCCS(=O)(=O)N1CCOc2ccc(NC(=O)C3CC3)cc2C1
RP-LC retention time: 754 s

O=C(Nc1nccs1)C1CCN(C(=O)c2ccccn2)CC1
RP-LC retention time: 555 s

CC(=O)CC(=O)Nc1ccc(Cl)c(C(F)(F)F)c1
RP-LC retention time: 831 s

COc1ccc(OC)c(NC(=O)C2CC(=O)N(CCc3c[nH]c4ccc(Cl)cc34)C2)c1 (stereo not given)
RP-LC retention time: 849 s

CCOc1nc2ccccc2nc1N1CCCC(C(=O)NCc2ccccc2Cl)C1 (stereo not given)
RP-LC retention time: 1220 s

O=C1CC2(CCN(C(=O)C3CC(=O)N(c4ccc(Cl)cc4)C3)CC2)Oc2ccccc21 (stereo not given)
RP-LC retention time: 831 s

O=S(=O)(c1cccc(-c2nnc(-c3ccc(F)cc3)o2)c1)N1CCCCCC1
RP-LC retention time: 1110 s

COc1ccc(-n2c(=O)c(C(=O)Nc3ccc4c(c3)OCO4)c(O)c3cccnc32)cc1
RP-LC retention time: 1200 s

Cc1cc2nn(CC(=O)Nc3ccccc3F)c(=O)n2c(Nc2ccc(F)cc2)n1
RP-LC retention time: 967 s

CCn1cc(CN2CCC(C(=O)NCc3cccc(Cl)c3)CC2)c2cc(OC)ccc21
RP-LC retention time: 744 s

COc1ccc2c(c1)C1(CCN(C(=O)c3cccc(OC)c3OC)C1)C(=O)N2C (stereo not given)
RP-LC retention time: 737 s

Cc1ccc(N(C)S(=O)(=O)c2ccccc2-c2nc(-c3ccccc3)no2)cc1
RP-LC retention time: 1200 s

COc1ccc(C)cc1NC(=O)C1CCc2nc(N3CCOCC3)ncc2C1 (stereo not given)
RP-LC retention time: 832 s

Fc1ccccc1-c1noc(N2CCOCC2)n1
RP-LC retention time: 796 s

CSc1ccc(CNC(=O)C2CCCN(c3cc(=O)n(C)c(=O)n3C)C2)cc1 (stereo not given)
RP-LC retention time: 704 s

CN(C)C(=O)c1ccc2c(c1)N(CC(=O)NCc1cccc(Cl)c1)C(=O)C1CCCCN21 (stereo not given)
RP-LC retention time: 619 s

Nc1nc(N)c2ncn(-c3ccccc3)c2n1
RP-LC retention time: 584 s

Cc1cccc(Nc2ncccc2C(=O)O)c1C
RP-LC retention time: 707 s

CCc1nc2cc(N3CCC(C(=O)NCC4CCCO4)CC3)cnc2nc1CC (stereo not given)
RP-LC retention time: 670 s

CCN(C(=O)Cn1c(CN(C)C(=O)c2ccco2)nc2ccccc21)c1ccccc1
RP-LC retention time: 704 s

Cc1sc(C)c(S(=O)(=O)N2CCN(c3ccccn3)CC2)c1-c1cc(C(F)(F)F)on1
RP-LC retention time: 887 s

CC(C)(C)NC(=O)N1CCC(CNC(=O)CSCc2ccccc2)CC1
RP-LC retention time: 735 s

CCCCCCC(=O)OC1CC(C)(C)NC(C)(C)C1
RP-LC retention time: 707 s

CCOC(=O)c1cccc(NC(=O)C2CCN(S(=O)(=O)c3ccc4[nH]c(=O)ccc4c3)CC2)c1
RP-LC retention time: 768 s

O=C(NC(c1ccccc1)c1nnc(N2CCOCC2)o1)c1ccc(Cl)cc1 (stereo not given)
RP-LC retention time: 781 s

Cc1cc(NC(=O)CSc2cc(-c3ccccc3)ncn2)no1
RP-LC retention time: 780 s

CN(C)c1cc(N2CCCC(NC(=O)c3ccnn3C)C2)ncn1 (stereo not given)
RP-LC retention time: 578 s

COc1ccc(-c2nnc(Cc3nc(-c4ccc5c(c4)OCO5)no3)o2)cc1OC
RP-LC retention time: 940 s

Cc1cc(NCC2CCCO2)n2nc(-c3ccc(Cl)cc3)c(C)c2n1 (stereo not given)
RP-LC retention time: 723 s

O=C(NCCC1=CCCCC1)C1CCCN(c2ccc3nncn3n2)C1 (stereo not given)
RP-LC retention time: 770 s

COc1ccc(NC(=O)Nc2ccc(-c3cn4cccnc4n3)cc2)cc1
RP-LC retention time: 616 s

COC(=O)c1nc(NC(=O)Cn2nc3c(cc2=O)CCCCC3)sc1C(C)C
RP-LC retention time: 864 s

COCCNC(=O)c1sc2c(cnc3cc4c(cc32)OCO4)c1-c1ccccc1
RP-LC retention time: 732 s

Nc1cccc(-c2ccc(N3CCCCC3)nn2)c1
RP-LC retention time: 570 s

COCCCNC(=O)CCc1c(C)n(C)c2nc(-c3ccccc3)nn2c1=O
RP-LC retention time: 653 s

COCC(=O)N1CCCn2cc(-c3cccc(C#N)c3)nc21
RP-LC retention time: 675 s

COC(=O)c1cnc(N2CCN(c3ccccc3OC)CC2)c2ccccc12
RP-LC retention time: 1030 s

O=C(C1CCC1)N1CCc2c([nH]c3ccccc23)C1c1ccc(Cl)cc1 (stereo not given)
RP-LC retention time: 1230 s

COc1ccc(N2CCN(c3ncc4c(n3)CCN(Cc3cccc(F)c3)C4)CC2)cc1
RP-LC retention time: 648 s

CC(C)c1ccc(OCC(=O)Nc2cc3c(cc2N2CCOCC2)n(C)c(=O)c(=O)n3C)cc1
RP-LC retention time: 921 s
